{"source": "patent US9090589B2", "about": "“Specific nNOS inhibitors for the therapy and prevention of human melanoma” (priority 2011, dated 2015)", "key": {"melanoma A375 cells": {"tested_on": "melanoma A375 cells", "test": "L-arginine-induced intracellular NO, Griess reagent", "format": "cell-based, human", "method": "(§1) Measurements of intracellular Nitric Oxide levels and NOS activities: NO was measured as nitrite by interaction with Griess reagent (Enzo Life Sciences, Lausen, Switzerland). […] The NOS activity was analyzed by Ultrasensitive Colorimetric Assay according to manufacturer's protocol (Oxford Biomedical Research, Inc., Oxford, Mich.)."}, "human melanoma cells": {"tested_on": "human melanoma cells", "test": "MTT proliferation of melanoma cells under DETA/NO stress", "format": "cell-based", "from_the_text": "(§2) Proliferation analysis: MTT Colorimetric Assay was utilized for cell proliferation analysis according to manufacturer's protocol (Vybrant®, Molecular Probes, Inc. Eugene, Oreg.)."}, "[1]": {"tested_on": "human primary melanocytes", "test": "MTT proliferation of primary melanocytes", "format": "cell-based", "conditions": "12-day period, DETA/NO exposure", "from_the_text": "as §2"}, "[2]": {"tested_on": "nNOS expression in normal melanocytes", "test": "nNOS expression in normal melanocytes", "format": "cell-based, human", "conditions": "DETA/NO", "from_the_text": "Cell Protein Extraction and Western Blot Analysis: Melanoma cells were collected and lysed as described previously. […] Measurement of signal intensity on membranes was done using an imaging densitometer with Multi-Analyst software (Bio-Rad). All data were expressed as fold change of the control based on the calculation of density values of the specific protein bands standardized by α-Tubulin/actin."}, "[3]": {"tested_on": "metastatic melanoma A375 cells in skin equivalents", "test": "3-dimensional skin reconstructs, melanoma growth", "format": "cell-based, human", "conditions": "2 weeks", "method": "3-Dimensional Skin Reconstructs: A 3-dimensional skin reconstruct was achieved using a literature method. […] Once the epidermus is adhered to the dermal layer, skin equivalents are then lifted to the air liquid interface to allow keratinocytes differentiation. […] By the end of experiments, the skin equivalents were fixed and stained with H&E for pathological evaluation. S-100 staining as a melanocyte biomarker was performed to visualize and confirm the lesion of melanoma."}, "[4]": {"tested_on": "nNOS expression in melanoma cells", "test": "nNOS expression by immunoblotting in melanoma cells", "format": "cell-based, human", "conditions": "for induction of nNOS by DETA/NO or UVB radiation: as low as 1 μM", "method": "Cell Protein Extraction and Western Blot Analysis: Melanoma cells were collected and lysed as described previously. […] Measurement of signal intensity on membranes was done using an imaging densitometer with Multi-Analyst software (Bio-Rad). All data were expressed as fold change of the control based on the calculation of density values of the specific protein bands standardized by α-Tubulin/actin. UV radiation and cell treatment: Cells were grown to about 70% confluence and media was removed completely for UV radiation. For UVA radiation, 5 ml of PBS was added to one 10-cm dish of cells and ice cubes were placed next to dishes for absorbing the heat generated by UVA. […] The UV intensity was measured by a radiometer with proper probes. Fresh media was added back after radiation and cells were returned to 37° C. incubator for recovering."}, "Lu1205 cells": {"tested_on": "Lu1205 cells", "test": "Total NOS activity, Ultrasensitive Colorimetric Assay", "format": "cell-based, human", "method": "as §1"}, "[5]": {"tested_on": "metastatic melanoma cells", "test": "Matrigel invasion assay", "format": "cell-based, human", "method": "Invasion Assay: The invasiveness of melanoma cells was assessed on the basis of invasion of cells through Matrigel-coated membrane (BD Biosciences). Briefly, melanoma cells were collected and reconstituted in serum-free medium. Prepared cells were added to the upper Matrigel-coated insert. After 20 hr incubation, cells were fixed and stained with hematoxylin. Membranes were visualized microscopically and the invading cells on each of triplicate membranes were counted and averaged for 20 random fields."}, "[6]": {"tested_on": "metastatic melanoma A375 cells", "test": "Adhesion of A375 cells to fibroblast monolayer", "format": "cell-based, human", "conditions": "2 μM, 1 hour", "method": "Non-adhesive cells were washed away by PBS and MTT reagent was utilized to determine the relative amount of cells that adhered to FB cells, which is calculated as: relative adhesive cell OD value=(sample OD value (adhesive melanoma cells+FB)−negative control OD value (FB only)). The mean changes of OD values with treatments (control is set as 0) represented the relative effects of compounds on melanoma adhesion."}, "nNOS [7]": {"biological_target": "nNOS (Rattus norvegicus (Rat), UniProt P29476)", "test": "biochemical", "conditions": "recombinant isozyme"}, "nNOS [8]": {"tested_on": "nNOS", "test": "biochemical", "conditions": "for Selectivity nNOS/eNOS: Ki(eNOS)/Ki(nNOS); for Selectivity nNOS/iNOS: Ki(iNOS)/Ki(nNOS)"}, "eNOS [9]": {"biological_target": "T1, eNOS (Bos taurus (Bovine), UniProt P29473)", "test": "biochemical"}, "Sk-Mel28": {"tested_on": "Sk-Mel28", "test": "Cytotoxicity in melanoma cell line", "format": "cell-based", "conditions": "Homo sapiens, SK-MEL-28", "from_the_text": "as §2"}, "iNOS [10]": {"biological_target": "T2, iNOS (Mus musculus (Mouse), UniProt P29477)", "test": "biochemical"}, "wm3211": {"tested_on": "wm3211", "test": "Cytotoxicity in melanoma cell line", "format": "cell-based", "conditions": "Homo sapiens", "from_the_text": "as §2"}, "nNOS [11]": {"biological_target": "nNOS (Homo sapiens (Human), UniProt P29475)", "conditions": "cited from earlier work"}, "iNOS [12]": {"biological_target": "T3, iNOS (Homo sapiens (Human), UniProt P35228)", "format": "biochemical"}, "iNOS [13]": {"biological_target": "T3, iNOS", "conditions": "cited from earlier work"}, "iNOS [14]": {"biological_target": "T2, iNOS", "conditions": "read-out: Ki iNOS; recombinant isozyme"}, "eNOS [15]": {"biological_target": "T1, eNOS", "conditions": "read-out: Ki eNOS; recombinant isozyme"}}, "note": "Entries after “also recorded” stand apart in the source; their conditions may differ. Read-outs that look alike come from different tables or passages of the source.", "data": [{"smiles": "Oc1ccc(C=Cc2cc(O)cc(O)c2)cc1", "note": "[resveratrol]", "values": [{"measurement": "L-arginine-induced NO generation", "setting": "melanoma A375 cells; up to 50 μM", "value": "not affected at all; also recorded: failed to inhibit"}]}, {"smiles": "NCCN(CCN)[N+]([O-])=NO", "note": "[DETA/NO, 1-[N-(2-Aminoethyl)-N-(2-ammonioethyl)amino]diazen-1-ium-1,2-diolate, reference compound]", "values": [{"measurement": "proliferation of metastatic Lu1205 and SK-Mel28 cells", "setting": "human melanoma cells; 100 μM", "value": "Marked stimulation of proliferation"}, {"measurement": "proliferation of primary melanoma wm3211 cells", "setting": "human melanoma cells; 100 μM", "value": "not significant"}, {"measurement": "cell proliferation of primary melanocytes", "setting": "[1]", "value": "significantly stimulated"}, {"measurement": "nNOS induction in melanocytes", "setting": "[2]", "value": "not evident"}]}, {"smiles": "Cc1cc(N)nc(C[C@H]2CNC[C@@H]2NCCNCCc2cccc(F)c2)c1", "note": "[Compound 8, N^1-((3R,4S)-4-((6-amino-4-methylpyridin-2-yl)methyl)pyrrolidin-3-yl)-N^2-(3-fluorophenethyl)ethane-1,2-diamine]", "values": [{"measurement": "melanoma overgrowth induced by L-arginine in skin reconstruct", "setting": "[3]; 2 μM, L-arginine 2.87 mM", "value": "reversed the overgrowth induced by L-arginine"}, {"measurement": "induction of nNOS by DETA/NO or UVB radiation", "setting": "[4]; listed as Cpd 8", "value": "effectively inhibited the induction of nNOS"}, {"measurement": "induction of nNOS by DETA/NO or UVB radiation", "setting": "[4]; listed as cpd 8", "value": "inhibited nNOS expression"}, {"measurement": "basal nNOS levels of melanoma cells", "setting": "[4]; up to 200 μM", "value": "does not affect basal nNOS levels"}, {"measurement": "NOS activity in metastatic Lu1205 cells", "setting": "Lu1205 cells; 1 μM", "value": "significantly reduced total NOS activities; also recorded: effectively inhibited"}, {"measurement": "L-arginine-induced NO generation", "setting": "melanoma A375 cells; as low as 1 μM, listed as cpd 8", "value": "inhibited; also recorded: efficiently inhibited NO production; also recorded: reduced"}, {"measurement": "DETA/NO-stimulated proliferation", "setting": "human melanoma cells; co-treatment, after 3 days", "value": "significantly reversed"}, {"measurement": "invasion potential elevated by L-arginine", "setting": "[5]; A375 cells, co-treatment with L-arginine 2.87 mM", "value": "inhibited; also recorded: efficiently reversed"}, {"measurement": "cell invasion potential elevated by DETA/NO", "setting": "[5]; co-treatment with DETA/NO", "value": "reversed"}, {"measurement": "L-arginine-stimulated adhesion of A375 cells to fibroblast cells", "setting": "[6]", "value": "most potent inhibition of the relative adhesion"}]}, {"smiles": "Nc1cccc(C[C@H]2CN(Cc3ccccc3)C[C@H]2NCCCc2ccccc2)n1", "note": "[Compound 2, 6-(((3S,4S)-1-benzyl-4-((3-phenylpropyl)amino)pyrrolidin-3-yl)methyl)pyridin-2-amine]", "values": [{"measurement": "Ki", "setting": "nNOS [7]", "value": 48, "unit": "µM"}, {"measurement": "Selectivity nNOS/eNOS", "setting": "nNOS [8]", "value": 2.5}, {"measurement": "Selectivity nNOS/iNOS", "setting": "nNOS [8]", "value": 12.7}, {"measurement": "Ki", "setting": "eNOS [9]", "value": 122, "unit": "µM"}, {"measurement": "IC50", "setting": "Sk-Mel28", "value": 3.5, "unit": "µM"}, {"measurement": "Ki", "setting": "iNOS [10]", "value": 609, "unit": "µM"}, {"measurement": "IC50", "setting": "wm3211", "value": 5, "unit": "µM"}]}, {"smiles": "N=C(N)SCCc1cccc(CCSC(=N)N)c1", "note": "[PBIT, 1,3-phenylene-bis(1,2-ethanediyl)bisisothiourea]", "values": [{"measurement": "Ki", "setting": "nNOS [11]", "value": 0.029, "unit": "µM"}, {"measurement": "iNOS selectivity over nNOS", "setting": "iNOS [12]", "value": 1.5, "unit": "fold"}, {"measurement": "Ki", "setting": "iNOS [13]", "value": 0.019, "unit": "µM"}]}, {"smiles": "N=C(N)NCCC[C@H](N)C(=O)O", "note": "[L-arginine, reference compound]", "values": [{"measurement": "melanoma growth in 3D skin equivalents", "setting": "[3]; 2.87 mM", "value": "significantly promoted melanoma growth"}, {"measurement": "intracellular NO level", "setting": "melanoma A375 cells; incubation with L-arginine, A375 cells", "value": "increased"}, {"measurement": "invasion potential of metastatic melanoma cells", "setting": "[5]; 2.87 mM", "value": "markedly enhanced the invasion potential"}]}, {"smiles": "Cc1cc(N)nc(C[C@H]2CNC[C@H]2NCCNCc2cccc(C(F)(F)F)c2)c1", "note": "[Compound 3, N^1-((3S,4S)-4-((6-amino-4-methylpyridin-2-yl)methyl)pyrrolidin-3-yl)-N^2-(3-(trifluoromethyl)benzyl)ethane-1,2-diamine]", "values": [{"measurement": "Ki", "setting": "iNOS [14]", "value": 13.6, "unit": "µM"}, {"measurement": "Ki", "setting": "nNOS [7]", "value": 0.21, "unit": "µM"}, {"measurement": "Selectivity nNOS/eNOS", "setting": "nNOS [8]", "value": 552.4}, {"measurement": "Selectivity nNOS/iNOS", "setting": "nNOS [8]", "value": 64.8}, {"measurement": "Ki", "setting": "eNOS [15]", "value": 116, "unit": "µM"}]}, {"smiles": "Cl.Cl.Cl.NCCCCNCCCN", "note": "[Spermidine trihydrochloride (ST), Spermidine trihydrochloride, reference compound]", "values": [{"measurement": "NOS activity in metastatic Lu1205 cells", "setting": "Lu1205 cells; 10 μM", "value": "comparable inhibition of NOS activity"}]}, {"smiles": "COc1cc(/C=C/C(=O)CC(=O)/C=C/c2ccc(O)c(OC)c2)ccc1O", "note": "[curcumin]", "values": [{"measurement": "L-arginine-induced NO generation", "setting": "melanoma A375 cells; up to 50 μM", "value": "not affected at all; also recorded: failed to inhibit"}]}, {"smiles": "Cc1cc(N)nc(C[C@H]2CNC[C@H]2NCCN)c1", "note": "[Compound 5, N^1-((3S,4S)-4-((6-amino-4-methylpyridin-2-yl)methyl)pyrrolidin-3-yl)ethane-1,2-diamine]", "values": [{"measurement": "Ki", "setting": "iNOS [14]", "value": 5.84, "unit": "µM"}, {"measurement": "Ki", "setting": "nNOS [7]", "value": 0.098, "unit": "µM"}]}]}
